Measured values: patent publication US20110059174A1, “PKCdelta REGULATES NEUROINFLAMMATORY EVENTS” (IOWA STATE UNIVERSITY RESEARCH FOUNDATION, INC., priority 2009, published 2011)

Legend:
BV-2 cells = assay: TNFα release from BV-2 cells exposed to MMP-3 or MPP (Luminex); format: cell-based
Experimental: FIG. 6. MMP3-induces TNFα release in BV2 cells. […] After 24 h, the amount of TNFa released into the extracellular medium were determined in Luminex assays (see methods for details). n=6 ** p<0.01 compared to control.
(§1) Microglial cells are the primary immune cells in the CNS and are the major source of TNFα during neuroinflammation. Therefore, in this section, we examined the possible mechanisms that could regulate TNFα release during microglial activation. In particular, we examined whether PKCδ plays any role in the production and release of cytokines. For these studies, we used LPS as a microglial activator on BV2 cells, a widely used microglial cell line. BV-2 cells were exposed to LPS (1 μg/ml) in the presence or absence of PKCδ inhibitor rottlerin (1-3 μM). […] After 16 hr, cell-free supernatants were collected and TNFα levels were quantified using a multiplex bead-based luminex® assay system, as described in the methods.
Matrix metalloproteinases (MMPs) are a family of highly homologous protein-degrading zinc dependent endopeptidases. […] Therefore, we examined if MMP-3 could trigger TNFα release in BV-2 cells. […] Following 24 hr of MMP-3 treatment, supernatants were collected from extracellular medium and TNFα levels were determined using a Luminex immunoassay. […]

BV-2 microglia = assay: LPS induced cytokine release in BV-2 microglia (Luminex immunoassay); format: cell-based; details: BV-2 cells
Experimental: FIG. 1. […] BV-2 microglia were exposed to 1 μg/ml LPS with and without rottlerin (1 to 3 μM) for 16 hrs and cell free supernatants were collected.
BV-2 microglia were transfected with 20 nM PKCδ siRNA and non-specific siRNA. 24 hr later transfected cells were treated with LPS (1 μg/ml) for 16 hrs and cell free supernatants were collected. Specificity of PKCδ suppression was assessed by western blotting.
as §1
In this experiment, we examined whether PKCδ-siRNA mediated knockdown of PKCδ, would suppress LPS-induced TNFα release in BV-2 cells.

primary mouse microglia = assay: LPS-induced cytokine release from primary mouse microglia (Luminex immunoassay); format: cell-based
Experimental: FIG. 8. Effect of PKCδ inhibitor rottlerin on LPS-induced TNFα release from primary mouse microglia. Primary microglia were treated with 100 ng/ml LPS for 24 hr in the presence of PKCδ inhibitor rottlerin (1 μM and 3 μM). TNFα levels in the culture medium were quantified using a multiplex bead-based luminex® immunoassay. *** p<0.001 compared to controls; […] ### p<0.001 compared to LPS treatment; N=5.
(§2) FIG. 10. PKCδ inhibitor rottlerin suppresses pro-inflammatory cytokine release in primary mouse microglia. Primary microglia were isolated by differential adherence from post-natal mixed-glial cultures and purity verified to be more than 95% by immunocytochemistry. Primary microglia were treated with LPS (100 ng/ml) for 24 hrs or pre-treated with the PKCδ inhibitor rottlerin (1 μM) and then treated with LPS. After treatment, supernatants were collected and proinflammatory cytokine levels were assayed using a multiplexed luminex assay.
To extend the results obtained with the BV2 microglial cell line to primary microglia, we performed some preliminary studies in primary microglia isolated from post-natal day 2 (PND-2) C57 black mice as described previously (Floden et al. 2006). Briefly, the brain tissues from PND-2 mice were gently triturated in ice-cold Ca^2+ and Mg^2+-free HBSS. The cells were spun down and cultured using DMEM/F-12 medium containing 10% heat-inactivated FBS, antibiotics and essential nutrients, as described previously (Liu et al. 2002). After 12-14 days, microglia were harvested by the differential shaking method (350 rpm for 4 hr) and grown on poly-D lysine coated 24-well plates. Primary microglia were then fixed with 4% paraformaldehyde and processed for immunohistochemical staining using CD 11b (microglial marker) monoclonal antibody followed by Alexa 568-conjugated secondary antibody (red). Nuclei were stained with TO-PRO-3 dye (blue). The cells were viewed using a Nikon TE2000 microscope, and images were captured by SPOT digital camera. […] Additionally, we have established a microglia isolation procedure using magnetic labeled CD11b (MACs CD11b+) microbeads followed by AutoMACS cell sorting, which also yielded over 95% pure microglia.
We extended this study to primary microglia. CD11b+ primary microglia cultures were prepared, as described in the previous section. The primary microglial cultures were treated with 100 ng/ml LPS for 24 hr in the presence of various doses of the PKCδ inhibitor rottlerin (1 μM and 3 μM). TNFα levels in the culture medium were quantified using a multiplex bead-based Luminex® immunoassay. […] 3 μM rottlerin reduced LPS-induced TNFα release by 75%. Consistent with the BV2 cell line data presented in the original proposal, the new results provide further evidence that PKCδ can regulate TNFα release in primary microglia during neuroinflammation.
as §2, with “microglia. Primary Microglia were isolated” for “microglia. Primary microglia were isolated”

PKCδ = details: dose range 1-3 μM; cited from earlier work
[1] = test system: nigral dopaminergic neurons; details: MPTP-induced animal model of Parkinson's disease; cited from earlier work
[2] = dose range 1-3 μM; cited from earlier work
PKCδ promoter = PKCδ promoter luciferase reporter assay in BV-2 cells; format: cell-based, mouse
Text: FIG. 4. PKCδ promoter structure and site-directed mutagenesis of NFkB binding sites. (A) The ˜2 kb fragment of mouse PKCδ promoter region (relative to the transcription start site) was cloned using genomic DNA prepared from MN9D cells by the fusion PCR technique. PKCδ promoter fragment was cloned into promoter-less pGL3-basic vector with a luciferase reporter gene (Luc). (B). Site-specific mutagenesis of two NFkB sites present in the PKCδ promoter region.
FIG. 5. Mutation of NFkB sites block TNFa induced PKCδ promoter activity. Briefly, BV2 cells, were transfected with promoter constructs coding for native or NFkB mutated PKCδ promoter (see FIG. 10). 12 h after transfection, cells were exposed to 30 ng/ml TNF with or without etanercept (ETA). 24 h later, cell lsyates were subject to luciferase assay.
Since PKCδ upregulation was observed during neuroinflammation (FIG. 4A), we sought to determine mechanisms that regulate PKCδ expression via transcriptional activation. We first cloned the full-length mouse PKCδ promoter (2 Kb) from genomic DNA using the fusion PCR technique (FIG. 5A). The resulting PKCδ promoter 2 Kb fragment was cloned into the promoter-less pGL3-luciferase reporter vector. Binding of the transcription factors to the PKCδ promoter region would result in the expression of luciferase enzyme. […]

[3] = LPS and rottlerin treated samples, data not shown
[4] = LPS-stimulated primary mouse microglia

**Q.** Which “TNFα release from BV-2 cells” value (BV-2 cells; 24 hr exposure to 300 μM, data not shown) does the source give for C[n+]1ccc(-c2ccccc2)cc1 [MPP, 1-methyl-4-phenylpyridinium] here?
**A.** The value was “failed to release TNFα”.

**Q.** Which results are given for CC(=O)c1c(O)c(C)c(O)c(Cc2c(O)c3c(c(C(=O)/C=C/c4ccccc4)c2O)OC(C)(C)C=C3)c1O [rottlerin, 3-[(8-Cinnamoyl-5,7-dihydroxy-2,2-dimethyl-2H-1-benzopyran-6-yl)methyl]-2′,4′,6′-trihydroxy-5-methylaceophenone]?
**A.** LPS-induced TNFα release (BV-2 microglia; LPS 1 μg/ml, rottlerin 1-3 μM, 16 hr): dose-dependently blocked; LPS-induced IL-6 levels (BV-2 microglia; [3]): no effect; LPS-induced IL-12 levels (BV-2 microglia; [3]): no effect; release of IL-6 (primary mouse microglia; [4]): decrease; release of IL-12 (primary mouse microglia; [4]): decrease; reduction of LPS-induced TNFα release (primary mouse microglia; primary microglia, 100 ng/ml LPS 24 hr, 3 μM rottlerin): 75%; LPS-induced TNFα levels (primary mouse microglia; primary microglia, 100 ng/ml LPS 24 hr, rottlerin 1 μM and 3 μM, dose dependent): significantly suppressed; pro-inflammatory cytokine release (primary mouse microglia; primary microglia, pre-treated with rottlerin 1 μM, LPS 100 ng/ml 24 hrs): suppresses; PKCδ inhibition (PKCδ): effectively inhibits PKCδ; nigral dopaminergic neuronal death [1]: protects; toxicity [2]: does not cause any toxicity

**Q.** Which “TNFα-induced PKCδ promoter activity” value (PKCδ promoter; BV-2 cells, 30 ng/ml TNF with etanercept, 24 h, luciferase) does the source give for Etanercept here?
**A.** The value was “blocked”.

**Q.** For ProMMP3: inactive proMMP-3, which “levels of TNFα compared to control” value (BV-2 cells; BV-2 cells, 400 ng/ml, 24 hr) is on record?
**A.** The value was “did not induce any significant levels”.

**Q.** Which PKCδ promoter activity (PKCδ promoter; BV-2 cells expressing 148 bp minimal PKCδ promoter construct, 30 ng/ml TNF) does the source give for TNFα here?
**A.** Its PKCδ promoter activity is “significant increase”.
